Patent US20180155757A1, “IDENTIFICATION OF BACTERIA THAT ARE RESISTANT TO CARBAPENEMS BY MEMBRANE IMPERVIOUSNESS” (BIOMÉRIEUX, priority 2015, published 2018)
Read-outs that look alike come from different tables or passages of the source.

How the values were obtained:
Experiment in all cases: Etest MIC of indicator carbapenems on MH II agar without/with PMBN
Assay type in all cases: cell-based
[1] = system: E. cloacae 1008074 (VIM producer)
Description: (§1) The determinations of antibiotic MIC were carried out on solid culture media with the Etest® method. To do this, Etest® strips (bioMérieux, France) were used: • Etest® Imipenem IM 32, and • Etest® Ertapenem ETP 32, and also solid culture media, differing from one another by virtue of their non-inhibitory concentrations of PMBN.
(§2) These solid culture media are prepared in Petri dishes (0=145 mm; V=50 ml) on a base of MH II Agar (Becton Dickinson®, United States), more or less supplemented with PMBN. The PMBN concentrations range from 0 up to concentrations equivalent to one fifth of the MIC of PMBN (⅕ MICPMBN).
(§3) Using a swab and the Retro C80™ rota-plater (bioMérieux, France), the culture media were inoculated with the bacteria, originating from an inoculum of 0.5 McFarland, prepared in 0.85% NaCl solution from colonies subcultured the day before on MH II agar.
(§4) The various Etest® strips are then deposited on the surface of the culture media. After 16 to 20 hours of incubation at 35° C., the MICS were read.
(§5) By way of indicator carbapenems according to the invention, in addition to imipenem (IM) and ertapenem (ETP), meropenem (MP) was also tested. Like the other two antibiotics, meropenem was used in the form of Etest® strips (Etest® Meropenem MP 32 from the company bioMérieux, France).
(§6) The methods used to prepare the new culture media and to carry out the antibiotic-sensitivity tests are identical to those described above.

[2] = system: E. cloacae 1109137 (OXA-48 producer)
Description: as §1, §2, §3, §4, §5, §6

[3] = system: E. cloacae 1204052 (membrane impermeability)
Description: as §1, §2, §3, §4, §5, §6

[4] = system: E. cloacae 1204056 (membrane impermeability)
Description: as §1, §2, §3, §4, §5, §6

[5] = system: E. cloacae 1204058 (membrane impermeability); settings: in µg/mL
Description: as §1, §2, §3, §4, §5, §6

[6] = system: E. cloacae 1204153 (membrane impermeability); settings: in µg/mL
Description: as §1, §2, §3, §4, §5, §6

[7] = system: E. coli 1008078 (VIM producer)
Description: as §1, §2, §3, §4, §5, §6

E. coli SAB 100 (porin−) = settings: Escherichia coli
Description: as §1, §2, §3, §4, §5, §6

E. coli SAB 108 (porin−) = settings: Escherichia coli
Description: as §1, §2, §3, §4, §5, §6

[8] = system: Enterobacter aerogenes EA 27 (porin−); settings: Klebsiella aerogenes
Description: as §1, §2, §3, §4, §5, §6

[9] = system: Enterobacter aerogenes EA 5 (porin−); settings: Klebsiella aerogenes
Description: as §1, §2, §3, §4, §5, §6

[10] = system: K. pneumoniae 1012142 (KPC-2 producer)
Description: as §1, §2, §3, §4, §5, §6

[11] = system: K. pneumoniae 1103183 (NDM producer)
Description: as §1, §2, §3, §4, §5, §6

[12] = system: K. pneumoniae 1108003 (KPC-3 producer)
Description: as §1, §2, §3, §4, §5, §6

[13] = system: K. pneumoniae 1204035 (membrane impermeability); settings: in µg/mL
Description: as §1, §2, §3, §4, §5, §6

[14] = system: K. pneumoniae 1204036 (membrane impermeability)
Description: as §1, §2, §3, §4, §5, §6

[15] = system: K. pneumoniae 1204039 (membrane impermeability)
Description: as §1, §2, §3, §4, §5, §6

[16] = system: K. pneumoniae KP 55 (porin−); settings: Klebsiella pneumoniae
Description: as §1, §2, §3, §4, §5, §6

[17] = system: K. pneumoniae KP 63 (porin−); settings: Klebsiella pneumoniae
Description: as §1, §2, §3, §4, §5, §6

SMILES: C[C@@H](O)[C@H]1C(=O)N2C(C(=O)O)=C(S[C@@H]3CN[C@H](C(=O)Nc4cccc(C(=O)O)c4)C3)[C@H](C)[C@H]12 [ETP, ertapenem]
- MIC ([1]; [PMBN] 0, Table 4a): 0.38 µg/mL
- MIC ([1]; [PMBN] 100, Table 4a): 0.5 µg/mL
- MIC ([1]; [PMBN] 200, Table 4a): 0.5 µg/mL
- MIC ([1]; [PMBN] 300, Table 4a): 0.5 µg/mL
- MIC ([2]; [PMBN] 0, Table 4a): 24 µg/mL
- MIC ([2]; [PMBN] 200, Table 4a): 12 µg/mL
- MIC ([2]; [PMBN] 300, Table 4a): > 32 µg/mL
- MIC ([3]; [PMBN] 0, Table 4a): > 32 µg/mL
- MIC ([3]; [PMBN] 100, Table 4a): 12 µg/mL
- MIC ([3]; [PMBN] 200, Table 4a): 8 µg/mL
- MIC ([3]; [PMBN] 300, Table 4a): 3 µg/mL
- MIC ([4]; [PMBN] 0, Table 4a): > 32 µg/mL
- MIC ([4]; [PMBN] 100, Table 4a): 12 µg/mL
- MIC ([4]; [PMBN] 200, Table 4a): 3 µg/mL
- MIC ([4]; [PMBN] 300, Table 4a): 1 µg/mL
- MIC ([5]; [PMBN] 0, Table 4a): >32
- MIC ([5]; [PMBN] 100, Table 4a): 8-12
- MIC ([5]; [PMBN] 300, Table 4a): 0.75
- MIC ([6]; [PMBN] 0, Table 4a): >32
- MIC ([6]; [PMBN] 100, Table 4a): 8
- MIC ([6]; [PMBN] 200, Table 4a): 4
- MIC ([6]; [PMBN] 300, Table 4a): 3
- MIC ([7]; [PMBN] 0, Table 4a): 2 µg/mL
- MIC ([7]; [PMBN] 100, Table 4a): 0.75 µg/mL
- MIC ([7]; [PMBN] 200, Table 4a): 0.5 µg/mL
- MIC ([7]; [PMBN] 300, Table 4a): 0.38 µg/mL
- MIC (E. coli SAB 100 (porin−); [PMBN] 0): 1.5 µg/mL
- MIC (E. coli SAB 100 (porin−); [PMBN] 50 μg/ml): 0.19 µg/mL
- MIC (E. coli SAB 100 (porin−); [PMBN] 100 μg/ml): 0.19 µg/mL
- MIC (E. coli SAB 100 (porin−); [PMBN] 150 μg/ml): 0.125 µg/mL
- MIC (E. coli SAB 100 (porin−); [PMBN] 200 μg/ml): 0.125 µg/mL
- MIC (E. coli SAB 108 (porin−); [PMBN] 0): 4 µg/mL
- MIC (E. coli SAB 108 (porin−); [PMBN] 50 μg/ml): 0.25 µg/mL
- MIC (E. coli SAB 108 (porin−); [PMBN] 100 μg/ml): 0.19 µg/mL
- MIC (E. coli SAB 108 (porin−); [PMBN] 150 μg/ml): 0.19 µg/mL
- MIC (E. coli SAB 108 (porin−); [PMBN] 200 μg/ml): 0.19 µg/mL
- MIC [8]: 0.125 µg/mL
- MIC ([8]; E. aerogenes EA 27 (porin−), [PMBN] 0, Table 4, read-out: MIC): > 32 µg/mL
- MIC ([8]; E. aerogenes EA 27 (porin−), [PMBN] 50 μg/ml, read-out: MIC): 4 µg/mL
- MIC ([8]; E. aerogenes EA 27 (porin−), [PMBN] 100 μg/ml, read-out: MIC): 1.5 µg/mL
- MIC ([8]; E. aerogenes EA 27 (porin−), [PMBN] 150 μg/ml, read-out: MIC): 0.75 µg/mL
- MIC ([8]; E. aerogenes EA 27 (porin−), [PMBN] 200 μg/ml, read-out: MIC): 0.19 µg/mL
- MIC ([8]; EA 27 (porin−), [PMBN] 0, Table 2, read-out: MIC): 64 µg/mL
- MIC ([8]; EA 27 (porin−), [PMBN] MIC/8, read-out: MIC): 0.25 µg/mL
- MIC ([8]; EA 27 (porin−), [PMBN] MIC/10, read-out: MIC): 16 µg/mL
- MIC ([9]; E. aerogenes EA 5 (porin−), [PMBN] 0, Table 4): 6 µg/mL
- MIC ([9]; E. aerogenes EA 5 (porin−), [PMBN] 50 μg/ml): 2 µg/mL
- MIC ([9]; E. aerogenes EA 5 (porin−), [PMBN] 100 μg/ml): 2 µg/mL
- MIC ([9]; E. aerogenes EA 5 (porin−), [PMBN] 150 μg/ml): 1.5 µg/mL
- MIC ([9]; E. aerogenes EA 5 (porin−), [PMBN] 200 μg/ml): 1 µg/mL
- MIC ([9]; EA 5 (porin−), [PMBN] 0, Table 2): 32 µg/mL
- MIC ([9]; EA 5 (porin−), [PMBN] MIC/5): 4 µg/mL
- MIC ([9]; EA 5 (porin−), [PMBN] MIC/8): 4 µg/mL
- MIC ([9]; EA 5 (porin−), [PMBN] MIC/10): 4 µg/mL
- MIC ([10]; [PMBN] 0, Table 4a): 32 µg/mL
- MIC ([10]; [PMBN] 100, Table 4a): > 32 µg/mL
- MIC ([10]; [PMBN] 200, Table 4a): > 32 µg/mL
- MIC ([10]; [PMBN] 300, Table 4a): > 32 µg/mL
- MIC ([11]; [PMBN] 0, Table 4a): > 32 µg/mL
- MIC ([11]; [PMBN] 100, Table 4a): > 32 µg/mL
- MIC ([11]; [PMBN] 200, Table 4a): 32 µg/mL
- MIC ([11]; [PMBN] 300, Table 4a): 32 µg/mL
- MIC ([12]; [PMBN] 0, Table 4a): 8 µg/mL
- MIC ([12]; [PMBN] 100, Table 4a): 24 µg/mL
- MIC ([12]; [PMBN] 200, Table 4a): > 32 µg/mL
- MIC ([12]; [PMBN] 300, Table 4a): > 32 µg/mL
- MIC ([13]; [PMBN] 0, Table 4a): >32
- MIC ([13]; [PMBN] 100, Table 4a): 8
- MIC ([13]; [PMBN] 200, Table 4a): 8-12
- MIC ([13]; [PMBN] 300, Table 4a): 6
- MIC ([14]; [PMBN] 0, Table 4a): > 32 µg/mL
- MIC ([14]; [PMBN] 100, Table 4a): > 32 µg/mL
- MIC ([14]; [PMBN] 200, Table 4a): > 32 µg/mL
- MIC ([14]; [PMBN] 300, Table 4a): > 32 µg/mL
- MIC ([15]; [PMBN] 0, Table 4a): 2 µg/mL
- MIC ([15]; [PMBN] 100, Table 4a): 1.5 µg/mL
- MIC ([15]; [PMBN] 200, Table 4a): 1.5 µg/mL
- MIC ([15]; [PMBN] 300, Table 4a): 1 µg/mL
- MIC ([16]; [PMBN] 0): 0.38 µg/mL
- MIC ([16]; [PMBN] 50 μg/ml): 0.25 µg/mL
- MIC ([16]; [PMBN] 100 μg/ml): 0.19 µg/mL
- MIC ([16]; [PMBN] 150 μg/ml): 0.125 µg/mL
- MIC ([16]; [PMBN] 200 μg/ml): 0.064 µg/mL
- MIC ([17]; [PMBN] 0): 1 µg/mL
- MIC ([17]; [PMBN] 50 μg/ml): 0.5 µg/mL
- MIC ([17]; [PMBN] 100 μg/ml): 0.38 µg/mL
- MIC ([17]; [PMBN] 150 μg/ml): 0.19 µg/mL
- MIC ([17]; [PMBN] 200 μg/ml): 0.125 µg/mL
